Measurements from US10471046B2, “Method for treating, preventing, or reducing the risk of skin infection” (Melinta Subsidiary Corp., priority 2014, dated 2019).
Values after ≈ are worked out from the molar mass of the structure shown.

Tested on: S. aureus
Assay: Minimum inhibitory concentrations (MICs) for S. aureus of exemplary compounds (Table 2)
Type: cell-based
Conditions: Staphylococcus aureus, minimum inhibitory concentrations for S. aureus; read-out: MICs
In short: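 MICs (μg/mL) against S. aureus come from microtiter-tray dilution susceptibility testing per NCCLS M7-A5, comparing growth with and without compound.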

| MIC | SMILES |
| --- | --- |
| 2 µg/mL (≈ 4.44 µM) | CC(=O)NC[C@H]1CN(c2ccc(-c3ccc(CNCc4cccn4C)cc3)c(F)c2)C(=O)O1 [Compound 4059, N-[3-(2-Fluoro-4′-{[(1-methyl-1H-pyrrol-2-ylmethyl)-amino]-methyl}-biphenyl-4-yl)-2-oxo-oxazolidin-5-(S)-ylmethyl]-acetamide] |
| 2 µg/mL (≈ 4.01 µM) | CC(=O)NC[C@H]1CN(c2ccc(-c3ccc(CNCc4cncc5ccccc45)cc3)c(F)c2)C(=O)O1 [Compound 4060, N-[3-(2-Fluoro-4′-{[(isoquinolin-4-ylmethyl)-amino]-methyl}-biphenyl-4-yl)-2-oxo-oxazolidin-5-(S)-ylmethyl]-acetamide] |
| 4 µg/mL (≈ 8.86 µM) | CC(=O)NC[C@H]1CN(c2ccc(-c3ccc(CN(C)Cc4ccoc4)cc3)c(F)c2)C(=O)O1 [Compound 4061, N-(3-{2-Fluoro-4′-[(furan-3-ylmethyl-methyl-amino)-methyl]-biphenyl-4-yl}-2-oxo-oxazolidin-5-(S)-ylmethyl)-acetamide] |
| 2 µg/mL (≈ 4.08 µM) | CC(=O)NC[C@H]1CN(c2ccc(-c3ccc(CNCc4ccc(N(C)C)cc4)cc3)c(F)c2)C(=O)O1 [Compound 4062, N-(3-{4′-[(4-Dimethylamino-benzylamino)-methyl]-2-fluoro-biphenyl-4-yl}-2-oxo-oxazolidin-5-(S)-ylmethyl)-acetamide] |
| 2 µg/mL (≈ 4.15 µM) | CC(=O)NC[C@H]1CN(c2ccc(-c3ccc(CNCc4ccc(Cl)cc4)cc3)c(F)c2)C(=O)O1 [Compound 4063, N-(3-{4′-[(4-Chloro-benzylamino)-methyl]-2-fluoro-biphenyl-4-yl}-2-oxo-oxazolidin-5-(S)-ylmethyl)-acetamide] |
| 2 µg/mL (≈ 3.87 µM) | CC(=O)NC[C@H]1CN(c2ccc(-c3ccc(CNCc4ccc(Cl)cc4Cl)cc3)c(F)c2)C(=O)O1 [Compound 4064, N-(3-{4′-[(2,4-Dichloro-benzylamino)-methyl]-2-fluoro-biphenyl-4-yl}-2-oxo-oxazolidin-5-(S)-ylmethyl)-acetamide] |
| 2 µg/mL (≈ 4.01 µM) | CC(=O)NC[C@H]1CN(c2ccc(-c3ccc(CNCc4cccc5cnccc45)cc3)c(F)c2)C(=O)O1 [Compound 4065, N-[3-(2-Fluoro-4′-{[(isoquinolin-5-ylmethyl)-amino]-methyl}-biphenyl-4-yl)-2-oxo-oxazolidin-5-(S)-ylmethyl]-acetamide] |
| 8 µg/mL (≈ 18.3 µM) | CC(=O)NC[C@H]1CN(c2ccc(-c3ccc(CNCc4cnc[nH]4)cc3)c(F)c2)C(=O)O1 [Compound 4066, N-[3-(2-Fluoro-4′-{[(3H-imidazol-4-ylmethyl)-amino]-methyl}-biphenyl-4-yl)-2-oxo-oxazolidin-5-(S)-ylmethyl]-acetamide] |
| 4 µg/mL (≈ 8.86 µM) | CC(=O)NC[C@H]1CN(c2ccc(-c3ccc(CN(C)Cc4cnc[nH]4)cc3)c(F)c2)C(=O)O1 [Compound 4067, N-[3-(2-Fluoro-4′-{[(3H-imidazol-4-ylmethyl)-methyl-amino]-methyl}-biphenyl-4-yl)-2-oxo-oxazolidin-5-(S)-ylmethyl]-acetamide] |
| 128 µg/mL (≈ 247 µM) | CC(=O)NC[C@H]1CN(c2ccc(-c3ccc(CN(Cc4c[nH]cn4)Cc4cnc[nH]4)cc3)c(F)c2)C(=O)O1 [Compound 4068, N-[3-(2-Fluoro-4′-{[(1H-imidazol-4-ylmethyl)-(3H-imidazol-4-ylmethyl)-amino]-methyl}-biphenyl-4-yl)-2-oxo-oxazolidin-5-(S)-ylmethyl]-acetamide] |
| 1 µg/mL (≈ 2.07 µM) | CC(=O)NC[C@H]1CN(c2ccc(-c3ccc(CNCc4ccc([N+](=O)[O-])o4)cc3)c(F)c2)C(=O)O1 [Compound 4069, N-[3-(2-Fluoro-4′-{[(5-nitro-furan-2-ylmethyl)-amino]-methyl}-biphenyl-4-yl)-2-oxo-oxazolidin-5-(S)-ylmethyl]-acetamide] |
| 1 µg/mL (≈ 2.12 µM) | CC(=O)NC[C@H]1CN(c2ccc(-c3ccc(CNCc4cccc(C#N)c4)cc3)c(F)c2)C(=O)O1 [Compound 4070, N-(3-{4′-[(3-Cyano-benzylamino)-methyl]-2-fluoro-biphenyl-4-yl}-2-oxo-oxazolidin-5-(S)-ylmethyl)-acetamide] |
| 2 µg/mL (≈ 4.01 µM) | CC(=O)NC[C@H]1CN(c2ccc(-c3ccc(CNCc4ccc5ncccc5c4)cc3)c(F)c2)C(=O)O1 [Compound 4071, N-[3-(2-Fluoro-4′-{[(quinolin-6-ylmethyl)-amino]-methyl}-biphenyl-4-yl)-2-oxo-oxazolidin-5-(S)-ylmethyl]-acetamide] |
| 2 µg/mL (≈ 4.32 µM) | CC(=O)NC[C@H]1CN(c2ccc(-c3ccc(CNCc4cccc(C)n4)cc3)c(F)c2)C(=O)O1 [Compound 4072, N-[3-(2-Fluoro-4′-{[(6-methyl-pyridin-2-ylmethyl)-amino]-methyl}-biphenyl-4-yl)-2-oxo-oxazolidin-5-(S)-ylmethyl]-acetamide] |
| 2 µg/mL (≈ 4.45 µM) | CC(=O)NC[C@H]1CN(c2ccc(-c3ccc(CNCc4ccncc4)nc3)c(F)c2)C(=O)O1 [Compound 4073, N-{3-[3-Fluoro-4-(6-{[(pyridin-4-ylmethyl)-amino]-methyl}-pyridin-3-yl)-phenyl]-2-oxo-oxazolidin-5-(S)-ylmethyl}-acetamide] |
| 1 µg/mL (≈ 2.2 µM) | CC(=O)NC[C@H]1CN(c2ccc(-c3ccc(CNCc4nccs4)cc3)c(F)c2)C(=O)O1 [Compound 4074, N-[3-(2-Fluoro-4′-{[(thiazol-2-ylmethyl)-amino]-methyl}-biphenyl-4-yl)-2-oxo-oxazolidin-5-(S)-ylmethyl]-acetamide] |
| 2 µg/mL (≈ 4.28 µM) | CC(=O)NC[C@H]1CN(c2ccc(-c3ccc(CNCc4ccc(CO)o4)cc3)c(F)c2)C(=O)O1 [Compound 4075, N-[3-(2-Fluoro-4′-{[(5-hydroxymethyl-furan-2-ylmethyl)-amino]-methyl}-biphenyl-4-yl)-2-oxo-oxazolidin-5-(S)-ylmethyl]-acetamide] |
| 4 µg/mL (≈ 8.86 µM) | CC(=O)NC[C@H]1CN(c2ccc(-c3ccc(CNCc4nccn4C)cc3)c(F)c2)C(=O)O1 [Compound 4076, N-[3-(2-Fluoro-4′-{[(1-methyl-1H-imidazol-2-ylmethyl)-amino]-methyl}-biphenyl-4-yl)-2-oxo-oxazolidin-5-(S)-ylmethyl]-acetamide] |
| 16 µg/mL (≈ 31.8 µM) | CC(=O)NC[C@H]1CN(c2ccc(-c3ccc(CNCc4csc5ccccc45)cc3)c(F)c2)C(=O)O1 [Compound 4077, N-[3-(4′-{[(Benzo[b]thiophen-3-ylmethyl)-amino]-methyl}-2-fluoro-biphenyl-4-yl)-2-oxo-oxazolidin-5-(S)-ylmethyl]-acetamide] |
| 2 µg/mL (≈ 3.87 µM) | CC(=O)NC[C@H]1CN(c2ccc(-c3ccc(CNCc4ccc(Br)o4)cc3)c(F)c2)C(=O)O1 [Compound 4078, N-[3-(4′-{[(5-Bromo-furan-2-ylmethyl)-amino]-methyl}-2-fluoro-biphenyl-4-yl)-2-oxo-oxazolidin-5-(S)-ylmethyl]-acetamide] |
| 32 µg/mL (≈ 68.7 µM) | CC(=O)NC[C@H]1CN(c2ccc(-c3ccc(CNCCCn4ccnc4)cc3)c(F)c2)C(=O)O1 [Compound 4079, N-(3-{2-Fluoro-4′-[(3-imidazol-1-yl-propylamino)-methyl]-biphenyl-4-yl}-2-oxo-oxazolidin-5-(S)-ylmethyl)-acetamide] |
| 128 µg/mL (≈ 277 µM) | CC(=O)NC[C@H]1CN(c2ccc(-c3ccc(C(=N)NCc4ccncc4)cc3)c(F)c2)C(=O)O1 [Compound 4080, N-{3-[2-Fluoro-4′-(N-pyridin-4-ylmethyl-carbamimidoyl)-biphenyl-4-yl]-2-oxo-oxamlidin-5-(S)-ylmethyl}-acetamide] |
